Like-named read-outs stand apart in the source and are kept apart here. Residues, ends and D or L forms follow the SMILES beside them. *: point of attachment. ClAc = O=C(CCl)*
Legend:
HIV-1 [1] = conditions: H9 cells
Experimental: Compounds (a), (b), (c), (d) were tested in the molarity range from 0.1 μM to 1000 μM. Infectivity tests were carried out as follows: an HIV-1 suspension containing 10^2 infectious units was absorbed on to 5×10^6 H9 cells in a volume of 1 ml for 2 hours at 4° C. After this time, 9 ml of tissue culture medium with the required inhibitor concentration was added. The medium was exchanged with fresh medium plus inhibitor daily. Two control cultures were also prepared, one without inhibitor to determine the normal virus replication rate, the other containing inhibitor but no virus, to determine whether the substances were cytotoxic for H9 cells. […] The amount of virus antigen produced by the infected cells was measured daily using Elisa for eight days, indicating the amount of HIV-1 antigen in the tissue culture medium. After this, the cells were pelleted, washed in medium without inhibitor, and further incubated in inhibitor-less medium. The antigen production was measured on days 9 and 12 (ie 1 and […] after removal of the inhibitor). Virus production was also measured on days 7, 8, 9, and 12 by determining the amount of reverse transcriptase in the supernatant of the cell medium.

HIV-1 [2] = test system: HIV-1
H9 cells = assay: Cytotoxicity for H9 cells, trypan blue colouration; type: cell-based; conditions: culture with inhibitor but no virus, 0.1 μM to 1000 μM
[3] = 0,1 μM, day 9 post infection, no inhibitor (after removal)
[4] = 0,1 μM, day 12 post infection, no inhibitor (after removal)
[5] = 1 μM, day 9 post infection, no inhibitor (after removal)
[6] = 1 μM, day 12 post infection, no inhibitor (after removal)
[7] = 10 μM, day 9 post infection, no inhibitor (after removal)
[8] = 10 μM, day 12 post infection, no inhibitor (after removal)
[9] = 100 μM, day 9 post infection, no inhibitor (after removal)
[10] = 100 μM, day 12 post infection, no inhibitor (after removal)
[11] = 1000 μM, day 9 post infection, no inhibitor (after removal)
[12] = 1000 μM, day 12 post infection, no inhibitor (after removal)

In the case of `CC[C@H](C)[C@H](NC(=O)[C@@H]1CCCN1C(=O)[C@H](Cc1ccccc1)NC(=O)[C@H](C)NC(=O)CNC(=O)CCl)C(=O)N[C@@H](C)C(=O)O` [C, Cl--CH2 --CO-Gly-Ala-Phe-Pro-Ile-Ala-OH] (ClAc-GAFPIA-OH), the “HIV-1 antigen production as measured in antigen capture ELISA” value (“HIV-1 antigen production as measured” for short) (HIV-1 [1]; 0,1 μM, day 1 post infection) is reported as 0,062 o. D, the “HIV-1 antigen production as measured” value (HIV-1 [1]; 0,1 μM, day 2 post infection) is reported as 0,069 o. D and the “HIV-1 antigen production as measured” value (HIV-1 [1]; 0,1 μM, day 3 post infection) is reported as 0,055 o. D. The “HIV-1 antigen production as measured” value (HIV-1 [1]; 0,1 μM, day 4 post infection) was 0,052 o. D, the “HIV-1 antigen production as measured” value (HIV-1 [1]; 0,1 μM, day 5 post infection) was 0,054 o. D and the “HIV-1 antigen production as measured” value (HIV-1 [1]; 0,1 μM, day 6 post infection) was 0,105 o. D. The “HIV-1 antigen production as measured” value (HIV-1 [1]; 0,1 μM, day 7 post infection) was 0,276 o. D, the “HIV-1 antigen production as measured” value (HIV-1 [1]; 0,1 μM, day 8 post infection) was 0,336 o. D and the “HIV-1 antigen production as measured” value (HIV-1 [1]; [3]) was 0,588 o. D. The “HIV-1 antigen production as measured” value (HIV-1 [1]; [4]) was 1,010 o. D, the “HIV-1 antigen production as measured” value (HIV-1 [1]; 1 μM, day 1 post infection) was 0,061 o. D and the “HIV-1 antigen production as measured” value (HIV-1 [1]; 1 μM, day 2 post infection) was 0,054 o. D. For the same compound, the “HIV-1 antigen production as measured” value (HIV-1 [1]; 1 μM, day 3 post infection) was 0,060 o. D, the “HIV-1 antigen production as measured” value (HIV-1 [1]; 1 μM, day 4 post infection) was 0,050 o. D and the “HIV-1 antigen production as measured” value (HIV-1 [1]; 1 μM, day 5 post infection) was 0,051 o. D. The “HIV-1 antigen production as measured” value (HIV-1 [1]; 1 μM, day 6 post infection) was 0,133 o. D, the “HIV-1 antigen production as measured” value (HIV-1 [1]; 1 μM, day 7 post infection) was 0,267 o. D and the “HIV-1 antigen production as measured” value (HIV-1 [1]; 1 μM, day 8 post infection) was 0,239 o. D. For the same compound, the “HIV-1 antigen production as measured” value (HIV-1 [1]; [5]) was 0,808 o. D, the “HIV-1 antigen production as measured” value (HIV-1 [1]; [6]) was 1,042 o. D and the “HIV-1 antigen production as measured” value (HIV-1 [1]; 10 μM, day 1 post infection) was 0,069 o. D. For the same compound, the “HIV-1 antigen production as measured” value (HIV-1 [1]; 10 μM, day 2 post infection) was 0,048 o. D, the “HIV-1 antigen production as measured” value (HIV-1 [1]; 10 μM, day 3 post infection) was 0,066 o. D and the “HIV-1 antigen production as measured” value (HIV-1 [1]; 10 μM, day 4 post infection) was 0,064 o. D. For the same compound, the “HIV-1 antigen production as measured” value (HIV-1 [1]; 10 μM, day 5 post infection) was 0,049 o. D, the “HIV-1 antigen production as measured” value (HIV-1 [1]; 10 μM, day 6 post infection) was 0,099 o. D and the “HIV-1 antigen production as measured” value (HIV-1 [1]; 10 μM, day 7 post infection) was 0,228 o. D. The “HIV-1 antigen production as measured” value (HIV-1 [1]; 10 μM, day 8 post infection) was 0,292 o. D, the “HIV-1 antigen production as measured” value (HIV-1 [1]; [7]) was 0,643 o. D and the “HIV-1 antigen production as measured” value (HIV-1 [1]; [8]) was 1,040 o. D. For the same compound, the “HIV-1 antigen production as measured” value (HIV-1 [1]; 100 μM, day 1 post infection) was 0,064 o. D, the “HIV-1 antigen production as measured” value (HIV-1 [1]; 100 μM, day 2 post infection) was 0,056 o. D and the “HIV-1 antigen production as measured” value (HIV-1 [1]; 100 μM, day 3 post infection) was 0,062 o. D. The “HIV-1 antigen production as measured” value (HIV-1 [1]; 100 μM, day 4 post infection) was 0,053 o. D, the “HIV-1 antigen production as measured” value (HIV-1 [1]; 100 μM, day 5 post infection) was 0,061 o. D and the “HIV-1 antigen production as measured” value (HIV-1 [1]; 100 μM, day 6 post infection) was 0,100 o. D. For the same compound, the “HIV-1 antigen production as measured” value (HIV-1 [1]; 100 μM, day 7 post infection) was 0,265 o. D, the “HIV-1 antigen production as measured” value (HIV-1 [1]; 100 μM, day 8 post infection) was 0,296 o. D and the “HIV-1 antigen production as measured” value (HIV-1 [1]; [9]) was 0,787 o. D. For the same compound, the “HIV-1 antigen production as measured” value (HIV-1 [1]; [10]) was 0,940 o. D, the “HIV-1 antigen production as measured” value (HIV-1 [1]; 1000 μM, day 1 post infection) was 0,071 o. D and the “HIV-1 antigen production as measured” value (HIV-1 [1]; 1000 μM, day 2 post infection) was 0,053 o. D. The “HIV-1 antigen production as measured” value (HIV-1 [1]; 1000 μM, day 3 post infection) was 0,061 o. D, the “HIV-1 antigen production as measured” value (HIV-1 [1]; 1000 μM, day 4 post infection) was 0,057 o. D and the “HIV-1 antigen production as measured” value (HIV-1 [1]; 1000 μM, day 5 post infection) was 0,123 o. D. The “HIV-1 antigen production as measured” value (HIV-1 [1]; 1000 μM, day 6 post infection) was 0,096 o. D, the “HIV-1 antigen production as measured” value (HIV-1 [1]; 1000 μM, day 7 post infection) was 0,415 o. D and the “HIV-1 antigen production as measured” value (HIV-1 [1]; 1000 μM, day 8 post infection) was 0,778 o. D. For the same compound, the “HIV-1 antigen production as measured” value (HIV-1 [1]; [11]) was 1,019 o. D, the “HIV-1 antigen production as measured” value (HIV-1 [1]; [12]) was 1,000 o. D and the “Reverse Transkriptase Determination” value (HIV-1 [2]; 0,1 μM, day 7 post infection) was 5561 epm/ml. For the same compound, the “Reverse Transkriptase Determination” value (HIV-1 [2]; 0,1 μM, day 8 post infection) was 2314 epm/ml, the “Reverse Transkriptase Determination” value (HIV-1 [2]; [3]) was 7477 epm/ml and the “Reverse Transkriptase Determination” value (HIV-1 [2]; [4]) was 113340 epm/ml. The “Reverse Transkriptase Determination” value (HIV-1 [2]; 1 μM, day 7 post infection) was 4575 epm/ml, the “Reverse Transkriptase Determination” value (HIV-1 [2]; 1 μM, day 8 post infection) was 3198 epm/ml and the “Reverse Transkriptase Determination” value (HIV-1 [2]; [5]) was 4186 epm/ml. The “Reverse Transkriptase Determination” value (HIV-1 [2]; [6]) was 164240 epm/ml, the “Reverse Transkriptase Determination” value (HIV-1 [2]; 10 μM, day 7 post infection) was 5358 epm/ml and the “Reverse Transkriptase Determination” value (HIV-1 [2]; 10 μM, day 8 post infection) was 4398 epm/ml. The “Reverse Transkriptase Determination” value (HIV-1 [2]; [7]) was 8823 epm/ml, the “Reverse Transkriptase Determination” value (HIV-1 [2]; [8]) was 158800 epm/ml and the “Reverse Transkriptase Determination” value (HIV-1 [2]; 100 μM, day 7 post infection) was 3838 epm/ml. The “Reverse Transkriptase Determination” value (HIV-1 [2]; 100 μM, day 8 post infection) was 6370 epm/ml, the “Reverse Transkriptase Determination” value (HIV-1 [2]; [9]) was 8860 epm/ml and the “Reverse Transkriptase Determination” value (HIV-1 [2]; [10]) was 96780 epm/ml. The “Reverse Transkriptase Determination” value (HIV-1 [2]; 1000 μM, day 7 post infection) was 7646 epm/ml, the “Reverse Transkriptase Determination” value (HIV-1 [2]; 1000 μM, day 8 post infection) was 4308 epm/ml and the “Reverse Transkriptase Determination” value (HIV-1 [2]; [11]) was 5343 epm/ml. The “Reverse Transkriptase Determination” value (HIV-1 [2]; [12]) was 107640 epm/ml and the “cytotoxic effect for H9 cells, colouration with trypan blue” value (H9 cells) was “no cytotoxic effect”.

From patent publication US5674979A, “Agent for inhibiting symmetrical proteins, in particular enzymes” (priority 1989, dated 1997)
